The test system of one data set is DO11.10 T cell clones. Kind of data set: Ca2+ imaging with P2 receptor agonists. The format is cell-based, mouse.
In a further data set the test system is ERK. Briefly: ERK phosphorylation time course after CD3 stimulation, TCR signaling blocked with PP2 at 30 min. The settings on record: for ERK phosphorylation / activity: added in combination with PP2. In kind it is cell-based, mouse. On the procedure: (§1) After 30 min of stimulation, cells were either left untreated (first panel on the left), or treated with the src-like kinase inhibitor PP2 either alone (second panel) or in combination with oATP (third panel) or ARL (fourth panel).
(§2) In order to distinguish between TCR dependent and independent ERK activation, TCR signaling was blocked at 30 min after CD3 activation with the tyrosine kinase inhibitor PP2, which inhibits TCR dependent Ick/fyn src-like kinase activity.

A further data set deals with CRAC channels. Briefly: Ca2+ dependent CRAC inactivation, two sequential Ca2+ additions after tapsigargin store depletion (Fura-2). In kind it is cell-based, mouse. To be noted: in the presence of CCCP. As to the method:
FIG. 1: Increased mitochondrial Ca^2+ buffering in crt^−/− T cells. • a) After ER Ca^2+ depletion with tapsigargin, CCE was induced in crt^−/− and crt^+/+ T cell clones by the addition of 0.5 mM Ca^2+ to the extracellular medium (see Example 1). After complete washout of extracellular Ca^2+, the mitochondrial Ca^2+ buffering was visualized by the addition of ionomycin. • b) Histograms representing mitochondrial Ca^2+ content after CCE with 0.5, 1 and 2 mM extracellular Ca^2+ in crt^−/− and crt^+/+ T cell clones. • c) Increased mitochondrial Ca^2+ buffering in crt^−/− T cells retards CRAG inactivation. Cells were treated with tapsigargin followed by two separate additions of Ca^2+ to the extracellular medium (see Example 1) (see also FIG. 2C). The rate of rise of cytosolic Ca^2+ concentration was calculated at the first and second addition of Ca^2+. […] (*, P<0.05, **, P<0.001, ***, P<0.0001)
FIG. 2: Reduced Ca^2+ in the ER, unaltered mitochondrial membrane potential and decreased CRAC inactivation in crt^−/− T cells. • a) The ER Ca^2+ content of Fura-2 loaded D011.10 TCR transgenic T cell clones was assessed by addition of the SERCA pump inhibitor tapsigargin to a medium devoid of Ca^2+ (see Example 1). The passive leak of Ca^2+ from the ER into the cytosol is seen as a slow transient rise in the cytosolic Ca^2+ concentration. […]

The next data set has as its system naive CD4 T cells. Kind of data set: T cell proliferation by CFSE dilution, plate-bound CD3 and CD28 mAbs. In kind it is cell-based, mouse. The settings on record: IL-2 at 250 U/ml; PMA.
The next data set concerns Egr2 and Egr3. Briefly: Real-time PCR of anergy related genes Egr2 and Egr3. The settings on record: PMA together with oATP. The format is cell-based, mouse. An excerpt: NFAT nuclear translocation without concomitant MAPK activation, which can be obtained by ionomycin treatment, implements a transcriptional program leading to T cell anergy (Macian et al., Cell 109:719-731 (2002)). […] Then, we hypothesized that activation of T cells in the presence of oATP could induce T cell anergy. […] The effect of oATP was not due to altered turn-over of the TCR/CD3 complex at the cell surface, as determined by FACS analysis (data not shown).

The test system of data set [1] is naïve CD4^+ T cells. Briefly: IL-2 ELISA in culture supernatants, plate-bound CD3 and CD28 stimulation. In kind it is cell-based, mouse. An excerpt:
An inhibitory effect of oATP on peripheral blood T cell proliferation has been described (Baricordi et al., Blood 87:682-690 (1996)). […] We therefore hypothesize that ATP released from activated T cell is part of an autocrine loop, which plays an essential role in productive T cell activation.
On the technique in general: In an ELISA, binding on a coated surface is turned into a signal by an enzyme label.

In a further data set the test system is ZAP-70. Kind of data set: ZAP-70 phosphorylation after CD3 stimulation, PP2 added at 30 min. In kind it is cell-based, mouse. To be noted: PP2 at 30 min after CD3 activation. On the procedure:
as §1, §2

In data set [2] the test system is crt^−/− CD4^+ T cells.
In a further data set the test system is NFAT1. Kind of data set: NFAT1 nuclear localization after T cell stimulation. In kind it is cell-based, mouse. On the procedure:
as §2
NFAT nuclear translocation without concomitant MAPK activation, which can be obtained by ionomycin treatment, implements a transcriptional program leading to T cell anergy (Macian et al., Cell 109:719-731 (2002)). […] Then, we hypothesized that activation of T cells in the presence of oATP could induce T cell anergy.

The next data set deals with MAPK. Briefly: Protracted MAPK (p38, Erk) activation after 16 h CD3 stimulation. In kind it is cell-based, mouse. The settings on record: crt^−/− T cells, CD3 antibodies 16 h.
The test system of data set [3] is naïve CD4^+ T cells. Kind of data set: ATP synthesis after T cell activation with CD3 antibodies. In kind it is cell-based, mouse.
From the text: CCE induced by antigenic activation of crt^−/− CD4^+ T cells might therefore be linked to a higher ATP production compared to crt^+/+ cells.
For data set [4], the system named is crt^−/− CD4^+ T cells. Kind of data set: Propidium iodide (PI) staining of treated cells.
Another data set concerns T cell clones. Kind of data set: Cellular ATP content by luciferase assay after TCR triggering. The format is cell-based. To be noted: 200 μM PX10 preincubation 30 minutes. On the procedure: FIG. 10: The pannexin blocking peptide PX10 increases the intracellular ATP concentration upon TCR triggering.
Finally, we tested whether the inhibition of pannexin-mediated ATP release might lead to a fast accumulation of ATP following T cell activation. T cell clones were preincubated with 200 μM PX10 for 30 minutes. They were then stimulated with biotinylated anti-CD3 antibodies followed by crosslinking with strepavidine. Samples were collected at indicated time points, detergent-solubilized and frozen until their use in a standard luciferase assay to determine cellular ATP content.

A further data set has as its system human T cells. Kind of data set: Proliferation of CFSE-loaded T cells, plate-bound anti-CD3/28 (FACS). In kind it is cell-based. The settings on record: 100 μM oATP or 200 μM of PX10 peptide, four days. On the procedure:
Our results point to a role for pannexin hemichannels in ATP release in T cells. […] CFSE-loaded human T cells were stimulated with plate-bound anti-CD3/28 antibodies in the presence of 100 μM oATP or 200 μM of PX10 peptide. Four days later, the proliferation was measured by FACS analysis.

The next data set relates to mouse T cells. Kind of data set: IL-2 secretion by ELISA. The format is cell-based.

“Also recorded” adds a separate entry of the source. Like-named read-outs stand apart in the source and are kept apart here.

Regarding `CSc1nc(N)c2ncn([C@@H]3O[C@H](COP(=O)(O)OP(=O)(O)O)[C@@H](O)[C@H]3O)c2n1` [2MeSADP], the “cells activated / responsive to P2 subtype preferring agonist” value (from here on “cells activated / responsive”) in the data set on DO11.10 T cell clones worked out at 31%.

For `CCN(CC)c1ncnc2c1ncn2[C@@H]1O[C@H](COP(=O)(O)OP(=O)(O)C(Br)(Br)P(=O)(O)O)[C@@H](O)[C@H]1O` [ARL67156], the “ERK phosphorylation / activity” value is recorded as “increase” with ERK and “increased” with ERK (listed as ARL).

On to `Nc1ncnc2c1ncn2[C@@H]1O[C@H](COP(=O)(O)OP(=O)(O)OP(=O)(O)O)[C@@H](O)[C@H]1O` [ATP, adenosine triphosphate], for which the “cells with calcium rise” value with DO11.10 T cell clones (1 mM ATP, Ca^2+ present in the extracellular medium) was found to be 52%. Also, the cytosolic calcium rise result in the data set on DO11.10 T cell clones (absence of extracellular Ca^2+) is “moderate cytosolic calcium rise”.

In the case of `N#CC(C#N)=NNc1cccc(Cl)c1` [CCCP], in the data set with CRAC channels, the “Ca^2+ dependent inactivation of CRAC channels, crt^−/− versus crt^+/+ cells” value is “comparable”.

In the case of `CSc1nc(N)c2ncn([C@@H]3O[C@H](COP(=O)(O)OP(=O)(O)OP(=O)(O)O)[C@@H](O)[C@H]3O)c2n1` [MeSATP], the “cells activated / responsive” value with DO11.10 T cell clones amounted to 35%.

On to `CCCCCCCCCCCCCC(=O)O[C@@H]1[C@@H](C)[C@@]2(O)[C@@H](C=C(CO)C[C@]3(O)C(=O)C(C)=C[C@@H]23)[C@@H]2C(C)(C)[C@]12OC(C)=O` [PMA, phorbol 12-myristate 13-acetate, reference compound], for which the “oATP inhibition of T cell proliferation on addition of second agent” value in the data set on naive CD4 T cells was “completely restored”. Besides, in the data set on Egr2 and Egr3, the “Egr2 and Egr3 transcription” value is “robustly reduced”. For the same molecule, the “oATP and PPADS-dependent inhibition of IL-2 expression on addition of PMA” value in the data set with naïve CD4^+ T cells [1] (contemporaneous addition) was “rescued”.

On to `CC(C)(C)n1nc(-c2ccc(Cl)cc2)c2c(N)ncnc21` [PP2], for which the “TCR-dependent phosphorylation of ZAP-70” value in the data set with ZAP-70 is “affected; also recorded: efficiently inhibited”. Also, the “ERK phosphorylation at later time points” value with ERK (PP2 alone) is given as “did not significantly affect; also recorded: less affected”.

Regarding `Cc1nc(N=Nc2ccc(S(=O)(=O)O)cc2S(=O)(=O)O)c(COP(=O)(O)O)c(C=O)c1O` [PPADS], in the data set on crt^−/− CD4^+ T cells [2], the “cellular damage due to toxicity, PI staining versus untreated” value is reported as “did not reveal any difference”. Also, in the data set with NFAT1, the “nuclear localization of NFAT1” value is “did not significantly affect”. In addition, the “prolonged activation of MAPK (p38 MAPK and Erk)” value in the data set on MAPK was “almost completely abolished”. Also, the “ERK phosphorylation / activity” value in the data set with ERK is on record as “significant inhibition”. In the data set with naïve CD4^+ T cells [1] (versus untreated cells, 48 h), the “IL-2 in the cell culture supernatant” value is “Analogous inhibition”.

On to `CC[C@H]1/C=C/C=C/C[C@@H](C)[C@H](O)[C@@](C)(O)C(=O)[C@@H](C)[C@H](O)[C@@H](C)C(=O)[C@@H](C)[C@H](O)[C@@H](C)/C=C/C(=O)O[C@@H]2[C@H](C)[C@H](CC1)O[C@]1(CC[C@H](C)[C@H](C[C@@H](C)O)O1)[C@H]2C` [oligomycin], for which, in the data set on NFAT1, the “nuclear localization of NFAT1” value is reported as “did not significantly affect”. In addition, the “prolonged activation of MAPK (p38 MAPK and Erk)” value with MAPK is on record as “almost completely abolished”. In the data set on naïve CD4^+ T cells [3], the “activation induced ATP synthesis” value is “abolished”. For the same molecule, the “cellular damage due to toxicity, PI staining versus untreated” value in the data set with crt^−/− CD4^+ T cells [4] was “did not reveal any difference”.

In the case of `Nc1ncnc2c1ncn2[C@@H]1O[C@H](COP(=O)(O)CP(=O)(O)OP(=O)(O)O)[C@@H](O)[C@H]1O` [αβMeATP], the “cells activated / responsive” value with DO11.10 T cell clones turned out to be 18%.

As to BzATP, in the data set on DO11.10 T cell clones, the “cells activated / responsive” value is given as 33%.

In the case of WRQAAFVDSY [PX10], the “intracellular ATP after TCR triggering” value in the data set on T cell clones was “rapid intracellular rise of ATP; also recorded: increases”. Besides, the T cell proliferation result in the data set with human T cells is reported as “comparably to oATP”; in the data set on human T cells (listed as PX10 peptide), “strongly inhibited”. Further, in the data set with mouse T cells, the IL-2 secretion result was “strongly inhibited”.
